Experimental data taken from PMC5640650, “NatD promotes lung cancer progression by preventing histone H4 serine phosphorylation to activate Slug expression” (Nature Communications, 2017).

Experiments:
[1] = tested on: histone H4; experiment: Western blot of histone H4 modifications, H1299 cells; format: cell-based, human; conditions: total lysates, vs Scr
Text: Fig. 2 NatD is required for lung cancer cell migration and invasion in vitro. a Quantitative real-time PCR analysis of NatD mRNA levels normalized to GAPDH in scrambled control cells (Scr) and NatD-KD1 and NatD-KD2 cells. Results are shown as mean ± s.d. from three independent experiments. Two-tailed Student’s t-test was used. **P < 0.01 compared to Scr control. b Western blot analysis of NatD and Nt-ac-H4 protein levels in scrambled, NatD-KD1, and NatD-KD2 cells. GAPDH and histone H4 served as loading controls. Blots are representative of three independent experiments. c Representative images from wound healing assay of scrambled, NatD-KD1, and NatD-KD2 cells from three independent experiments (left panels). Wound healing assay results are quantified in the histogram (right panel). Results are shown as mean ± s.d. from three independent experiments. Two-tailed Student’s t-test was used. **P < 0.01 compared to Scr control. d Representative images of the migration of scrambled, NatD-KD1, and NatD-KD2 cells in a time-lapse cell tracker migration assay from three independent experiments. Representative images of the migration (e) and invasion (f) of scramble, NatD-KD1, and NatD-KD2 cells with transwell assay from three independent experiments (top panel). Cell counts for the corresponding assays of at least four random microscope fields (×100 magnification). Cell migration and invasion are expressed as a percentage of control (bottom panel). Results are shown as mean ± s.d. from three independent experiments. Two-tailed Student’s t-test was used. **P < 0.01 compared to Scr control
Fig. 6 Nt-acetylation of histone H4 antagonizes phosphorylation of histone H4 serine 1 to regulate Slug expression. a Western blot analysis of indicated histone H4 modifications in Scr and NatD-KD H1299 cells. Histone H4 served as a loading control. b ChIP analysis of the enrichment of indicated histone H4 modifications on the Slug promoter in Scr and NatD-KD H1299 cells. IgG served as a negative control. Results are shown as mean ± s.d. from three independent experiments; two-tailed Student’s t-test, *P < 0.05, **P < 0.01 compared with the Scr control. c ChIP analysis of the enrichment of H3K4me3 and H3K27me3 on the Slug promoter in Scr and NatD-KD H1299 cells. IgG served as a negative control. Results are shown as mean ± s.d. from three independent experiments; two-tailed Student’s t-test, **P < 0.01 compared with the Scr control. d Western blot analysis of indicated proteins from H1299 cells overexpressing NatDΔ or wild-type NatD. Histone H4 served as a loading control. e ChIP analysis of the enrichment of Nt-ac-H4 and H4S1ph on Slug promoter in H1299 cells overexpressing NatDΔ or wild-type NatD. IgG served as a negative control. Results are shown as mean ± s.d. from three independent experiments; two-tailed Student’s t-test, *P < 0.05, **P < 0.01 compared with the wild-type control
Cellular proteins were extracted by RIPA lysis buffer at high salt concentration (420 mM NaCl), and western blot analysis was performed in accordance with standard protocols. Scans of enhanced chemiluminescence (ECL) films showing uncropped blots are presented in Supplementary Fig. 10. […]

[2] = tested on: promoters of Zeb1, Zeb2, Twist1, and Snail; experiment: ChIP assay on the promoters of Zeb1, Zeb2, Twist1, and Snail, H1299 cells; format: cell-based, human; conditions: vs Scr
Description: ChIP assays were performed with H1299 cells in accordance with standard protocols. Normal rabbit IgG served as the control. ChIP samples were analyzed by quantitative real-time PCR using the FastStart Universal SYBR Green Master (Roche). A standard curve was prepared for each set of primers using serial titration of the input DNA. The percentage of ChIP DNA was calculated relative to the input DNA from primer-specific standard curves using the Rotor-Gene 6000 Series Software 1.7. The primer sequences for ChIP are listed in Supplementary Table 4. Antibodies used were: H4S1ph (Abcam; ab14723), H4K5ac (Millipore; CS204381), H4R3me2a (Active Motif; 39705), H4R3me2s (Abcam; ab5823), CK2α (Abcam; ab70774), H3K4me3 (Abcam; ab8580), and H3K27me3 (Abcam; ab6002).
Supplementary Figure 7. Knockdown of NatD has no effect on enrichment of H4S1ph on some EMT-related gene promoters. (a-d) ChIP analysis of the enrichment of Nt-ac-H4, H4S1ph, H3K4me3 and H3K27me3 on the promoter of Zeb1(a), Zeb2(b), Twist1(c), and Snail (d) in Scr and NatD-KD H1299 cells. IgG served as a negative control. Results are shown as mean ± s.d. of three independent experiments; two-tailed Student’s t-test, **P<0.01 or *P<0.05 compared to Scr […]
(1 picture or pasted object on this page, not shown here)

| Substance | level of Nt-ac-H4 [1] | level of H4R3me2a [1] | level of H4R3me2s [1] | level of H4S1ph [1] | levels of H4K5ac, H4K8ac, or H4K12ac [1] | level of Nt-ac-H4 ([1]; listed as NatD knockdown) | enrichment of H4S1ph, H3K4me3, and H3K27me3 on Zeb1, Zeb2, Twist1, Snail promoters [2] | enrichment of Nt-ac-H4 on Zeb1, Zeb2, Twist1, Snail promoters [2] |
| --- | --- | --- | --- | --- | --- | --- | --- | --- |
| NatD-KD1: Human NatD shRNA KD1: 5′-GATGAAGAAGGTTATGTTA-3′, lentiviral (shRNA, lentiviral) | significantly reduced | – | – | – | – | – | – | – |
| NatD-KD2: Human NatD shRNA KD2: 5′-GGTTGAATGTCTCCATTGA-3′, lentiviral (shRNA lentiviral) | significantly reduced | slightly increased | slightly decreased | significantly increased | No significant change | greatly decreased | unchanged | reduced |
